# Tests used:
# Format in all cases: cell-based
# B16.BL6 melanoma cells [1] = experiment: Cell viability after 1 hour conjugation, trypan blue (Example 12); conditions: for Viability of cells harvested: 1 hour
# Method: The alpha-Gal trisaccharide-carbamate probe (9) was dissolved in both PBS (without Mg^2+ and Ca^2+) (Gibco Invitrogen, Taastrup, Denmark) and HBSS (with D-glucose) (Gibco Invitrogen, Taastrup, Denmark) and passed through sterile filters (Sartorius Minisart®, 0.20 my) (Sartorius, Goettingen, Germany). Three different concentrations of the trisaccharide probe were prepared in both PBS and HBSS.
# Eight small flasks (25 cm^2) (TPP, Trasadingen Switzerland) were prepared, each containing 10^6 B16.BL6 cells, and the trisaccharide probe was added. Total volume of the flasks was 4.6 mL. The cells were incubated with the conjugate for 1 hour at 37° C. and 5% CO2.
# After conjugation, the supernatant from each flask was transferred to separate 10 mL tubes (TPP, Trasadingen Switzerland). The cells were harvested with Cell Dissociation Solution (2 mL per flask) (Sigma-aldrich, Saint Louis, Mo.) and transferred to the 10 mL tubes. Cells were centrifuged for 5 minutes at 300 G at 20° C. and resuspended in 0.5 mL of PBS or HBSS. Cell concentration and viability was determined by microscopic evaluation of trypan blue stained cell samples.
# B16.BL6 melanoma cells [2] = experiment: Flow cytometry with FITC-labelled GS1B4 (Example 15); conditions: all conjugation reactions, 10 μg-20 mg regular probe
# Method: Radioactive labelled and regular alpha-Gal trisaccharide-carbamate (9) probe (labeled on the cyclic carbamate carbon) was dissolved in HBSS containing D-glucose (without Mg^2+ and Ca^2+) (Gibco Invitrogen, Taastrup, Denmark) and passed through sterile filters (0.2 μm Supor® Acrodisc® 13, Gelman Sciences, Ann Arbor, Mich.). Eight different concentrations of radioactive labelled alpha-Gal trisaccharide-carbamate (9) (1 μg, 10 μg, 100 μg, 1 mg, 5 mg, 10 mg, 15 mg and 20 mg) and […] concentrations of regular “Glycom conjugate” (10 μg, 100 μg, 1 mg, 5 mg, 10 mg, 15 mg and 20 mg) were used. Twelve flasks (300 cm^2) (TPP, Trasadingen Switzerland) were prepared, each containing 10×10^6 B16.BL6 cells, for conjugation with the radioactive labelled trisaccharide probe, and 8 flasks (150 cm^2) (TPP, Trasadingen Switzerland) were prepared, each containing 5×10^6 B16.BL6 cells, for conjugation with the non-radioactive conjugate. […] This was repeated 3 times before cell concentration and viability was determined by microscopic evaluation of trypan blue stained cell samples.
# Cells conjugated with regular trisaccharide probe were analysed by flow cytometry. […] Mean fluorescence intensity of cells stained with GS1B4 was measured by flow cytometry.
# B16.BL6 melanoma cells [3] = experiment: Flow cytometry with FITC-labelled GS1B4 (Example 11)
# Method: Five hundred mg of alpha-Gal trisaccharide-carbamate (9) was dissolved in PBS (without Mg^2+ and Ca^2+) (Gibco Invitrogen, Taastrup, Denmark) and passed through a sterile filter (Sartorius Minisart®, 0.20 my) (Sartorius, Goettingen, Germany). Eight different concentrations of conjugate were prepared. Two mL of each conjugate dilution was added to a flask with 2 mL of PBS (without Mg^2+ and Ca^2+) and 600 μl of cell suspension containing 10^6 B16.BL6 cells. The final volume of the flasks was 4.6 mL. The flasks were numbered 1 to 10. Flasks 1 and 10 contained no conjugate and served as controls. The cells were incubated with the conjugate for 3 hours and 25 minutes at 37° C. and 5% CO2.
# B16.BL6 cells from conjugation reaction 1 (non-conjugated cells), 2, 4, 6 and 8 were analysed by flow cytometry. One hundred μL of cell suspension containing 1×10^5 cells were incubated for 15 minutes at 4° C. with 10 μg per mL (1:100 dilution) of FITC-labelled GS1B4 in TBS containing 1% BSA. The proportion of cells stained, mean and median cell fluorescence intensity was determined by flow cytometry. Afterwards, cells were washed once in PBS and measurements were repeated. Rabbit red blood cells (RRBC) known to express ˜2×10^6 Galα1,3Gal epitopes per cell were used for comparison. The analyses of conjugated B16.BL6 cells and RRBCs were performed on different days.
# [4] = unwashed cells, reaction 2 (200 mg conjugate)
# [5] = unwashed cells, reaction 6 (10 mg conjugate)
# [6] = unwashed cells, reaction 8 (2 mg conjugate)
# [7] = washed cells, reaction 2 (200 mg conjugate)
# [8] = washed cells, reaction 6 (10 mg conjugate)
# [9] = washed cells, reaction 8 (2 mg conjugate)
structure (smiles),measurement,setting,value
"O=C1N[C@@H]2O[C@H](CO)[C@@H](O[C@@H]3O[C@H](CO)[C@H](O)[C@H](O[C@H]4O[C@H](CO)[C@H](O)[C@H](O)[C@H]4O)[C@H]3O)[C@H](O)[C@H]2O1 [Compound 9, alpha-Gal trisaccharide-carbamate]","Viability of cells after incubation, before harvest",B16.BL6 melanoma cells [1]; after the 1-hour incubation with the trisaccharide probe,most of the cells were viable
same,Viability of cells harvested,"B16.BL6 melanoma cells [1]; reaction HA, 16 mg, HBSS (with D-glucose)",33.3%
same,Viability of cells harvested,"B16.BL6 melanoma cells [1]; reaction HB, 2 mg, HBSS (with D-glucose)",41.7%
same,Viability of cells harvested,"B16.BL6 melanoma cells [1]; reaction HC, 1 mg, HBSS (with D-glucose)",41.6%
same,Viability of cells harvested,"B16.BL6 melanoma cells [1]; reaction PA, 16 mg, PBS",14.3%
same,Viability of cells harvested,"B16.BL6 melanoma cells [1]; reaction PB, 2 mg, PBS",32.0%
same,Viability of cells harvested,"B16.BL6 melanoma cells [1]; reaction PC, 1 mg, PBS",37.5%
same,Binding of FITC-labelled GS1B4 to cells,B16.BL6 melanoma cells [2],no binding above background levels
same,"Galα1,3Gal epitopes detected by binding of FITC-labelled GS1B4, flow cytometry","B16.BL6 melanoma cells [3]; conjugation reactions 2, 6 and 8",found on B16.BL6 cells from all conjugation reactions tested
same,"Number of Galα1,3Gal-epitopes on the conjugated cells","B16.BL6 melanoma cells [3]; from fluorescence intensity, compared with rabbit red blood cells","> 2×10^6 Galα1,3Gal epitopes"
same,Cells marked with FITC-GS1B4,B16.BL6 melanoma cells [3]; reaction 2 (200 mg conjugate),95.82%
same,Cells marked with FITC-GS1B4,"B16.BL6 melanoma cells [3]; reaction 6, 10 mg conjugate",62.17%
same,Cells marked with FITC-GS1B4,"B16.BL6 melanoma cells [3]; reaction 8, 2 mg conjugate",56.82%
same,Mean fluorescence intensity,B16.BL6 melanoma cells [3]; [4],726.72
same,Median fluorescence intensity,B16.BL6 melanoma cells [3]; [4],523.30
same,Mean fluorescence intensity,B16.BL6 melanoma cells [3]; [5],862.24
same,Median fluorescence intensity,B16.BL6 melanoma cells [3]; [5],798.63
same,Mean fluorescence intensity,B16.BL6 melanoma cells [3]; [6],594.99
same,Median fluorescence intensity,B16.BL6 melanoma cells [3]; [6],572.55
same,Mean fluorescence intensity,B16.BL6 melanoma cells [3]; [7],447.48
same,Median fluorescence intensity,B16.BL6 melanoma cells [3]; [7],321.97
same,Mean fluorescence intensity,B16.BL6 melanoma cells [3]; [8],439.04
same,Median fluorescence intensity,B16.BL6 melanoma cells [3]; [8],406.79
same,Mean fluorescence intensity,B16.BL6 melanoma cells [3]; [9],264.30
same,Median fluorescence intensity,B16.BL6 melanoma cells [3]; [9],259.45
